Assay results published in patent publication US9006243B2, “HIV inhibiting 6-substituted pyrimidines” (Janssen R&D Ireland, priority 2006, dated 2015).
Where two headings read alike, the source gives them in different places.

Key:
Experiment in all cases: microbe, parasite or virus in culture
HIV strain Y181C = format: cell-based, HIV-1; conditions: HIV strain Y181C; MT4 LTR-EGFP cells; three days after infection
Source text: (§1) Image analysis allows very sensitive detection of viral infection.

HIV strain K103N + Y181C = format: cell-based, HIV-1; conditions: HIV strain K103N + Y181C; MT4 LTR-EGFP cells; three days after infection
Source text: as §1

HIV strain L100I + K103N = format: cell-based, HIV-1; conditions: HIV strain L100I + K103N; MT4 LTR-EGFP cells; three days after infection
Source text: as §1

[1] = biological target: HIV strain MDR (L100I, K103N, Y181C, E138G, V179I, L2214F, V278V/I and A327A/V in HIV reverse transcriptase); format: cell-based, HIV-1; conditions: MDR HIV strain (multiple RT mutations); MT4 LTR-EGFP cells; three days after infection
Source text: as §1
“MDR” refers to a strain that contains mutations L100I, K103N, Y181C, E138G, V179I, L2214F, V278V/I and A327A/V in HIV reverse transcriptase.

[2] = tested on: HIV strain IIIB (wild type)
Method: Compounds of the invention were tested for their potency against wild type virus and clinically isolated HIV strains harboring one or more mutations associated with resistance to reverse transcriptase inhibitors. Antiviral activity was evaluated using a cellular assay performed according to the following procedure.
The human T-cell line MT4 was engineered with Green Fluorescent Protein (GFP) and a HIV-specific promoter, HIV-1 long terminal repeat (LTR). This cell line, designated MT4 LTR-EGFP, can be used for the in vitro evaluation of anti-HIV activity of investigational compounds. In HIV-1 infected cells, the Tat protein is produced, which upregulates the LTR promotor and eventually leads to stimulation of the GFP reporter production, allowing to measure ongoing HIV-infection fluorometrically.
Analogously, MT4 cells were engineered with GFP and the constitutional cytomegalovirus (CMV) promotor. […] Cytotoxic investigational compounds reduce GFP levels of mock-infected MT4 CMV-EGFP cells.
The ratio of CC50 to EC50 is defined as the selectivity index (SI) and is an indication of the selectivity of the anti-HIV activity of the inhibitor. The ultimate monitoring of HIV-1 infection and cytotoxicity was done using a scanning microscope. Image analysis allows very sensitive detection of viral infection. Measurements were done before cell necrosis, which usually takes place about five days after infection, in particular measurements were performed three days after infection.
The columns IIIB, L100I, etc. in the table list the pEC50 (−log EC50) values against various strains IIIB, L100I, etc.; pSI lists the −log SI values.
Strain IIIB is wild type HIV strain.

[3] = wild type HIV strain IIIB, MT4 LTR-EGFP cells, GFP fluorescence, three days after infection

Cc1cc(C=CC#N)cc(C)c1Nc1cc(CN2CCOCC2)nc(Nc2ccc(C#N)cc2)n1 (mixture of isomers) [Compound 12]
Y181C pEC50 (−log EC50) (HIV strain Y181C): 7.28 | K103N + Y181C pEC50 (−log EC50) (HIV strain K103N + Y181C): 6.78 | L100I + K103N pEC50 (−log EC50) (HIV strain L100I + K103N): 6.50 | MDR pEC50 (−log EC50) [1]: 5.57 | IIIB pEC50 (−log EC50) [2]: 8.62

Cc1cc(C=CC#N)cc(C)c1Nc1cc(CNCC2CC2)nc(Nc2ccc(C#N)cc2)n1 (mixture of isomers) [Compound 14]
Y181C pEC50 (−log EC50) (HIV strain Y181C): 7.85 | K103N + Y181C pEC50 (−log EC50) (HIV strain K103N + Y181C): 7.76 | L100I + K103N pEC50 (−log EC50) (HIV strain L100I + K103N): 7.00 | MDR pEC50 (−log EC50) [1]: 5.67 | IIIB pEC50 (−log EC50) [2, 3]: 8.52

COCCNCc1cc(Nc2c(C)cc(C=CC#N)cc2C)nc(Nc2ccc(C#N)cc2)n1 (mixture of isomers) [Compound 15]
Y181C pEC50 (−log EC50) (HIV strain Y181C): 7.89 | K103N + Y181C pEC50 (−log EC50) (HIV strain K103N + Y181C): 7.86 | L100I + K103N pEC50 (−log EC50) (HIV strain L100I + K103N): 7.42 | MDR pEC50 (−log EC50) [1]: 5.55 | IIIB pEC50 (−log EC50) [2, 3]: 8.54

Cc1cc(C=CC#N)cc(C)c1Nc1cc(CNCC2COC(C)(C)O2)nc(Nc2ccc(C#N)cc2)n1 (mixture of isomers) [Compound 16]
Y181C pEC50 (−log EC50) (HIV strain Y181C): 7.60 | K103N + Y181C pEC50 (−log EC50) (HIV strain K103N + Y181C): 7.61 | L100I + K103N pEC50 (−log EC50) (HIV strain L100I + K103N): 7.06 | MDR pEC50 (−log EC50) [1]: 5.64 | IIIB pEC50 (−log EC50) [2]: 8.54

Cc1cc(C=CC#N)cc(C)c1Nc1cc(CNCCc2ccc(S(N)(=O)=O)cc2)nc(Nc2ccc(C#N)cc2)n1 (mixture of isomers) [Compound 17]
Y181C pEC50 (−log EC50) (HIV strain Y181C): 7.01 | K103N + Y181C pEC50 (−log EC50) (HIV strain K103N + Y181C): 7.04 | L100I + K103N pEC50 (−log EC50) (HIV strain L100I + K103N): 6.41 | MDR pEC50 (−log EC50) [1]: 5.56 | IIIB pEC50 (−log EC50) [2, 3]: 7.80

CON(C)Cc1cc(Nc2c(C)cc(C=CC#N)cc2C)nc(Nc2ccc(C#N)cc2)n1 (mixture of isomers) [Compound 18]
Y181C pEC50 (−log EC50) (HIV strain Y181C): 8.06 | K103N + Y181C pEC50 (−log EC50) (HIV strain K103N + Y181C): 7.79 | L100I + K103N pEC50 (−log EC50) (HIV strain L100I + K103N): 7.48 | MDR pEC50 (−log EC50) [1]: 6.33 | IIIB pEC50 (−log EC50) [2, 3]: 9.05

Cc1cc(C=CC#N)cc(C)c1Nc1cc(Cn2ccnc2)nc(Nc2ccc(C#N)cc2)n1 (mixture of isomers) [Compound 19]
Y181C pEC50 (−log EC50) (HIV strain Y181C): 7.68 | K103N + Y181C pEC50 (−log EC50) (HIV strain K103N + Y181C): 6.97 | L100I + K103N pEC50 (−log EC50) (HIV strain L100I + K103N): 6.83 | MDR pEC50 (−log EC50) [1]: 5.32 | IIIB pEC50 (−log EC50) [2, 3]: 8.48

Cc1cc(C=CC#N)cc(C)c1Nc1cc(CNCCc2ccccn2)nc(Nc2ccc(C#N)cc2)n1 (mixture of isomers) [Compound 20]
Y181C pEC50 (−log EC50) (HIV strain Y181C): 6.99 | K103N + Y181C pEC50 (−log EC50) (HIV strain K103N + Y181C): 6.96 | L100I + K103N pEC50 (−log EC50) (HIV strain L100I + K103N): 6.33 | MDR pEC50 (−log EC50) [1]: 5.30 | IIIB pEC50 (−log EC50) [2, 3]: 8.46

CC(=O)NCCNCc1cc(Nc2c(C)cc(C=CC#N)cc2C)nc(Nc2ccc(C#N)cc2)n1 (mixture of isomers) [Compound 22]
Y181C pEC50 (−log EC50) (HIV strain Y181C): 7.09 | K103N + Y181C pEC50 (−log EC50) (HIV strain K103N + Y181C): 7.02 | L100I + K103N pEC50 (−log EC50) (HIV strain L100I + K103N): 6.35 | MDR pEC50 (−log EC50) [1]: 5.50 | IIIB pEC50 (−log EC50) [2, 3]: 7.93

COCC(C)NCc1cc(Nc2c(C)cc(C=CC#N)cc2C)nc(Nc2ccc(C#N)cc2)n1 (mixture of isomers) [Compound 23]
Y181C pEC50 (−log EC50) (HIV strain Y181C): 7.72 | K103N + Y181C pEC50 (−log EC50) (HIV strain K103N + Y181C): 7.78 | L100I + K103N pEC50 (−log EC50) (HIV strain L100I + K103N): 6.98 | MDR pEC50 (−log EC50) [1]: 5.67 | IIIB pEC50 (−log EC50) [2, 3]: 8.80

C=CCNCc1cc(Nc2c(C)cc(C=CC#N)cc2C)nc(Nc2ccc(C#N)cc2)n1 (mixture of isomers) [Compound 24]
Y181C pEC50 (−log EC50) (HIV strain Y181C): 8.14 | K103N + Y181C pEC50 (−log EC50) (HIV strain K103N + Y181C): 7.84 | L100I + K103N pEC50 (−log EC50) (HIV strain L100I + K103N): 7.31 | MDR pEC50 (−log EC50) [1]: 5.75 | IIIB pEC50 (−log EC50) [2]: 9.16

Cc1cc(C=CC#N)cc(C)c1Nc1cc(CNCc2ccccn2)nc(Nc2ccc(C#N)cc2)n1 (mixture of isomers) [Compound 25]
Y181C pEC50 (−log EC50) (HIV strain Y181C): 7.03 | K103N + Y181C pEC50 (−log EC50) (HIV strain K103N + Y181C): 7.30 | MDR pEC50 (−log EC50) [1]: 5.75 | IIIB pEC50 (−log EC50) [2, 3]: 7.63

Cc1cc(C=CC#N)cc(C)c1Nc1cc(CNCc2ccco2)nc(Nc2ccc(C#N)cc2)n1 (mixture of isomers) [Compound 26]
Y181C pEC50 (−log EC50) (HIV strain Y181C): 7.62 | K103N + Y181C pEC50 (−log EC50) (HIV strain K103N + Y181C): 8.07 | MDR pEC50 (−log EC50) [1]: 5.57 | IIIB pEC50 (−log EC50) [2, 3]: 8.43
